The source of these data is US20260265238A1, “COMPOUNDS AND PHARMACEUTICAL COMPOSITIONS THAT DEGRADE SWI/SNF-RELATED MATRIX-ASSOCIATED ACTIN-DEPENDENT REGULATOR OF CHROMATIN SUBFAMILY A” (Plexium, Inc., priority 2023, published 2026).

A value given as a limit tells only on which side of the number the result lay.

Assay [1] concerns the target T1, SMARCA2-HiBiT HeLa cells (protein which is expressed from the SMARCA2 gene) (Homo sapiens, UniProt P51531).
T1 construct: protein which is expressed from the SMARCA2 and SMARCA4 genes; host or cells: HeLa (SMARCA2-HiBiT engineered line)
Kind of assay: SMARCA2 degradation assay (HiBiT-fusion HeLa cell line, 24 h, luminescence). The format is cell-based. On the procedure: (§1) SMARCA2 and SMARCA4 Degradation Assay
(§2) Degradation of protein which is expressed from the SMARCA2 and SMARCA4 genes was monitored using engineered HiBiT-fusion HeLa cell lines from Promega. In brief, 384-well white opaque plates (Greiner) were seeded with SMARCA2-HiBiT or SMARCA4-HiBiT HeLa cells at 8,000 cells/well and incubated overnight at 37° C. to allow cell attachment. After overnight incubation, test compounds were added in a 10-point dilution series (typically 10 μM to 300 pM) using a TECAN D300e Digital Dispenser, and plates were subsequently incubated for 24 hours at 37° C. 24-hours post-treatment, protein levels were quantified with the addition of HiBiT lytic buffer, LgBiT protein, and HiBiT substrate, according to manufacturer's specifications. Plates were incubated on an orbital plate shaker for 10 minutes at room temperature. Resulting luminescent values were read out using a ClarioStar plate reader and used to construct dose-response curves and calculation of degradation DC50s (GraphPad Prism).
(§3) Activity of the tested compounds is provided in Table 4 below as follows: A=DC50<0.050 μM; B=0.05 μM<DC50<0.50 μM; C=<0.5 μM<DC50<5.0 μM; D=DC50>5.0 μM. For SMARCA2 and SMARCA4 degradation activity @1 μM, +++=>70%; ++=30-70%; +=<30%.

For assay [2], the target named is T2, SMARCA4-HiBiT HeLa cells (protein which is expressed from the SMARCA4 gene) (Homo sapiens, UniProt P51532).
T2 construct: protein which is expressed from the SMARCA2 and SMARCA4 genes; host or cells: HeLa (SMARCA4-HiBiT engineered line)
Kind of assay: SMARCA4 degradation assay (HiBiT-fusion HeLa cell line, 24 h, luminescence). The format is cell-based. The method, then:
as §1, §2, §3

T2 sequence (P51532 whole entry): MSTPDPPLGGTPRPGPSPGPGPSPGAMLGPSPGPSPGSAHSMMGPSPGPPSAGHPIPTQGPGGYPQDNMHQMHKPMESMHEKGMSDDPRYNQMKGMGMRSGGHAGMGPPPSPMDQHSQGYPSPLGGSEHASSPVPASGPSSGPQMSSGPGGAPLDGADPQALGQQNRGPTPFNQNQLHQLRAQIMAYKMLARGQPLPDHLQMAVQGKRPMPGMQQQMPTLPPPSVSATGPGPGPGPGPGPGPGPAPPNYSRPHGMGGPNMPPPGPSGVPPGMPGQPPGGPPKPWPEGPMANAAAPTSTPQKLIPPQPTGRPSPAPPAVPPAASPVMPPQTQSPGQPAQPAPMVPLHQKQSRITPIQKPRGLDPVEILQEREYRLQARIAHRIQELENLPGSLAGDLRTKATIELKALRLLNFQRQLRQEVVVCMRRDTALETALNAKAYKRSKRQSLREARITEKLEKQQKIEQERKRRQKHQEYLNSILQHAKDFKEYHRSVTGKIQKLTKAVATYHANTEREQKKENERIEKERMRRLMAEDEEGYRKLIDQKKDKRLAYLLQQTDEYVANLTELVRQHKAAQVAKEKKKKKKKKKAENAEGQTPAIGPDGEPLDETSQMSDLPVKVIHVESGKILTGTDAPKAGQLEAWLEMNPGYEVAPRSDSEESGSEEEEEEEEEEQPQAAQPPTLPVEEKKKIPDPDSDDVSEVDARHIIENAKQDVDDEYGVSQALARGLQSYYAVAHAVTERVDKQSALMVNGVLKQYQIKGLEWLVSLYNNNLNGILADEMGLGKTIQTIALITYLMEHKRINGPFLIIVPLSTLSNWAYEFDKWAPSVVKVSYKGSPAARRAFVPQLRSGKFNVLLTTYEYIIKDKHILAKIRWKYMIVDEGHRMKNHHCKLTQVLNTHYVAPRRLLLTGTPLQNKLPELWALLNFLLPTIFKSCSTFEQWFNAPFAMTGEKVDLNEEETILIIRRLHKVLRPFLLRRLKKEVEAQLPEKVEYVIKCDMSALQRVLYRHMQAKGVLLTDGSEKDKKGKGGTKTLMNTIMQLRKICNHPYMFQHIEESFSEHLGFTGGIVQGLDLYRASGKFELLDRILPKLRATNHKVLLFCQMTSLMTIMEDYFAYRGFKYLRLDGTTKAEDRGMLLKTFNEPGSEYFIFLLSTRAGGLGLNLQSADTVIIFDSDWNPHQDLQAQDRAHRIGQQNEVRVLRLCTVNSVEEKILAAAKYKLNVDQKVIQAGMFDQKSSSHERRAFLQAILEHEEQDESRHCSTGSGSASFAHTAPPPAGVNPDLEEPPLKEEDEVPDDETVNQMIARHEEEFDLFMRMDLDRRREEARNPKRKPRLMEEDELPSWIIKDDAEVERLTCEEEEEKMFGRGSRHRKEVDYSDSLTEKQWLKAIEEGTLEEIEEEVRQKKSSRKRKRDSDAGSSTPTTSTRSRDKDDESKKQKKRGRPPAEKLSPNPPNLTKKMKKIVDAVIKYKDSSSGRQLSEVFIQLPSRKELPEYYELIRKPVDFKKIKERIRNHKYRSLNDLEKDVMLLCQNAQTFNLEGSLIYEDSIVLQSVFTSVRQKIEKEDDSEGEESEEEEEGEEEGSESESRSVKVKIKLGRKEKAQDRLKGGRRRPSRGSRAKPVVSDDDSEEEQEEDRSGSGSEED
T1 sequence (P51531 whole entry): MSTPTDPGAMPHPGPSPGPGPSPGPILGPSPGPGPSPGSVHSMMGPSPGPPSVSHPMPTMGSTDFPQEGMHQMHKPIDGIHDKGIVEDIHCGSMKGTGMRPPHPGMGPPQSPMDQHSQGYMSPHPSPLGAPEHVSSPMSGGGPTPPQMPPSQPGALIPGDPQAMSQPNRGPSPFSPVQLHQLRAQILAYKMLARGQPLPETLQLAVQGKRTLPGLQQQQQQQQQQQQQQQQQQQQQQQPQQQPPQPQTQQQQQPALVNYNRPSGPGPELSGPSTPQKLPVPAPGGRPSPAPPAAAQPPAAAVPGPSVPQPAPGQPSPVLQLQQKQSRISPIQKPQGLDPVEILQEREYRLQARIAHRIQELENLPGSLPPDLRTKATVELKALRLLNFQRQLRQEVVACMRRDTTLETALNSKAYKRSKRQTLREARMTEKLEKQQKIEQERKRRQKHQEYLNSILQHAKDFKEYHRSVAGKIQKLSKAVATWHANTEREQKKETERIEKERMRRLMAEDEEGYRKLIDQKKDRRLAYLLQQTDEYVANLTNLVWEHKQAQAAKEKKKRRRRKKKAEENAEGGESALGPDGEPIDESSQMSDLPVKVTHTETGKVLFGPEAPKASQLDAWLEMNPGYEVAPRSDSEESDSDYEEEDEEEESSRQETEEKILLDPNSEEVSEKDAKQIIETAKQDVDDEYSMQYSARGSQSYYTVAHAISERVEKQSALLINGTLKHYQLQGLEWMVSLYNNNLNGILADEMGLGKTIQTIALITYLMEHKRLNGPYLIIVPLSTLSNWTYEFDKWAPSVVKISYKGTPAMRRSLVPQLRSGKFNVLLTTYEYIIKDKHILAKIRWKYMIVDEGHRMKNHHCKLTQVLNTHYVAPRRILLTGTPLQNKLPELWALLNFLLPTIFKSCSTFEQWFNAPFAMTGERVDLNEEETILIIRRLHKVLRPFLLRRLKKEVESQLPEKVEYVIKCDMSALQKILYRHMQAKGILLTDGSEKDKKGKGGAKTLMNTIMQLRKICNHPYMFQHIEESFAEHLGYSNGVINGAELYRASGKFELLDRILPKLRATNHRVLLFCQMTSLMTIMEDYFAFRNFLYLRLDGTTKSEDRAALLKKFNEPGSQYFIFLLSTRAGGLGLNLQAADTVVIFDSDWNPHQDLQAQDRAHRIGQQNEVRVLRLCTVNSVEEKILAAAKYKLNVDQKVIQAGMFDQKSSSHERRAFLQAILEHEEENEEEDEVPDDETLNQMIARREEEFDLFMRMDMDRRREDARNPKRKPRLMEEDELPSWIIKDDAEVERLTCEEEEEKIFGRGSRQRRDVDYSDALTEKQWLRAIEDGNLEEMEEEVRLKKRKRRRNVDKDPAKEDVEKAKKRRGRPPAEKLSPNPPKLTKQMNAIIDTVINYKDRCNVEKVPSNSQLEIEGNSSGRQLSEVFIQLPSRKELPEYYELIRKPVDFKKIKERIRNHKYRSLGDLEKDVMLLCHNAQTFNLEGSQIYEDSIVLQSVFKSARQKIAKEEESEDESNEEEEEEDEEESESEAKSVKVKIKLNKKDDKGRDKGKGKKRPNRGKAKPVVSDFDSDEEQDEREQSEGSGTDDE

Consider `Nc1nnc(-c2ccccc2O)cc1N1CCN(c2ccnc(C#CCNC(=O)c3cccnn3)n2)CC1` [Compound P-5, N-[3-(4-{4-[3-amino-6-(2-hydroxyphenyl)pyridazin-4-yl]piperazin-1-yl}pyrimidin-2-yl)prop-2-yn-1-yl]pyridazine-3-carboxamide], for which, in assay [1], the DC50 was in the range of 0.05 to 0.5 µM and the “SMARCA2 % Degradation @ 1 μM” value is given as “++ (++=30-70%)”. In assay [2], this molecule had a DC50 of 0.05 to 0.5 µM and an inhibition at 1 µM of less than 30%.
`C[C@@H]1CCN1CC#Cc1nccc(N2CCCN(c3cc(-c4ccccc4O)nnc3N)CC2)n1` [Compound P-299, 0-{5-[4-(2-{3-[(R)-2-methyl-1-azetidinyl]-1-propynyl}-4-pyrimidinyl)-1,4-diazepan-1-y1]-6-amino-3-pyridaziny1} phenol]: in assay [1], the DC50 lay within 0.05 to 0.5 µM and the “SMARCA2 % Degradation @ 1 μM” value is “+++ (+++=>70%)”. Besides, in assay [2], the DC50 fell in the range of 0.05 to 0.5 µM and the inhibition at 1 µM lay within 30 to 70%.
Turning to `C[C@@H]1CCCN1CC#Cc1nccc(N2CCN(c3cc(-c4ccccc4O)nnc3N)CC[C@H]2C)n1` [Compound P-232, o-{5-[(R)-4-(2-{3-[(R)-2-methyl-1-pyrrolidinyl]-1-propynyl}-4-pyrimidinyl)-5-methyl-1,4-diazepan-1-yl]-6-amino-3-pyridazinyl}phenol], in assay [1], the DC50 was less than 0.05 µM and the “SMARCA2 % Degradation @ 1 μM” value is “+++ (+++=>70%)”. In assay [2], this molecule had a DC50 of less than 0.05 µM and an inhibition at 1 µM of 30 to 70%.
`Nc1nnc(-c2ccccc2O)cc1N1CC2CC(C1)N2c1ccnc(C#CCN2CC(F)(F)C2)n1` [Compound P-204, o-[6-amino-5-(6-{2-[3-(3,3-difluoro-1-azetidinyl)-1-propynyl]-4-pyrimidinyl}-3,6-diazabicyclo[3.1.1]hept-3-yl)-3-pyridazinyl]phenol]: in assay [1], the DC50 was in the range of 0.05 to 0.5 µM and the “SMARCA2 % Degradation @ 1 μM” value is “++ (++=30-70%)”. In assay [2], this molecule showed a DC50 of 0.5 to 5 µM and an inhibition at 1 µM of 30 to 70%.
Turning to `C[C@@H]1CCN(c2cc(-c3ccccc3O)nnc2N)CCN1c1ccnc(C#CC2CCCCN2C)n1` (stereo partly drawn) [Compound P-231, o-{5-[(R)-5-methyl-4-{2-[2-(1-methyl-2-piperidyl)ethynyl]-4-pyrimidinyl}-1,4-diazepan-1-yl]-6-amino-3-pyridaziny1} phenol], in assay [1], the DC50 was less than 0.05 µM and the “SMARCA2 % Degradation @ 1 μM” value was “++ (++=30-70%)”. In assay [2], this molecule had a DC50 of less than 0.05 µM and an inhibition at 1 µM of 30 to 70%.
On to `C[C@H]1CN(c2ccnc(C#CCN3CCCCC3)n2)CCN1c1cc(-c2ccccc2O)nnc1N` [Compound P-319, 0-(5-{(S)-2-methyl-4-[2-(3-piperidino-1-propynyl)-4-pyrimidinyl]-1-piperazinyl}-6-amino-3-pyridazinyl)phenol], for which, in assay [1], the DC50 is less than 0.05 µM and the “SMARCA2 % Degradation @ 1 μM” value was “++ (++=30-70%)”. In assay [2], this molecule came in with a DC50 of less than 0.05 µM and an inhibition at 1 µM of less than 30%.
On to `C[C@@H]1CCN(c2cc(-c3ccccc3O)nnc2N)CCN1c1nc(C#CCn2cncn2)ncc1F` [Compound P-214, o-{5-[(R)-4-{5-fluoro-2-[3-(1H-1,2,4-triazol-1-yl)-1-propynyl]-4-pyrimidinyl}-5-methyl-1,4-diazepan-1-yl]-6-amino-3-pyridazinyl}phenol], for which, in assay [1], the DC50 lay within 0.05 to 0.5 µM and the “SMARCA2 % Degradation @ 1 μM” value was “++ (++=30-70%)”. In addition, in assay [2], the half-maximal degradation concentration (DC50) is 0.05 to 0.5 µM and the inhibition at 1 µM fell in the range of 30 to 70%.
For `Nc1nnc(-c2ccccc2O)cc1N1CCN(c2ccnc(C#CCNC(=O)c3cnc4ccccn34)n2)CC1` [Compound P-66, N-(3-(4-(4-(3-amino-6-(2-hydroxyphenyl)pyridazin-4-yl)piperazin-1-yl)pyrimidin-2-yl)prop-2-yn-1-yl)imidazo[1,2-a]pyridine-3-carboxamide], in assay [1], the DC50 lay in the range of 0.05 to 0.5 µM and the “SMARCA2 % Degradation @ 1 μM” value is “++ (++=30-70%)”. In assay [2], this molecule had a DC50 of 0.05 to 0.5 µM and an inhibition at 1 µM of 30 to 70%.
Take `C[C@@H]1CCN(c2cc(-c3ccccc3O)nnc2N)CCN1c1ccnc(C#CCN2CC3CCC(C2)O3)n1` [Compound P-183, o-{5-[(R)-5-methyl-4-(2-{3-(8-oxa-3-azabicyclo[3.2.1]oct-3-yl)-1-propynyl}-4-pyrimidinyl)-1,4-diazepan-1-yl]-6-amino-3-pyridazinyl}phenol]: in assay [1], the 50% degradation concentration (DC50) fell in the range of 0.05 to 0.5 µM and the “SMARCA2 % Degradation @ 1 μM” value was “+++ (+++=>70%)”. In assay [2], this molecule returned a DC50 of 0.05 to 0.5 µM and an inhibition at 1 µM of 30 to 70%.
On to `Nc1nnc(-c2ccccc2O)cc1N1CCCN(c2ccnc(C#CCNC3CC3)n2)CC1` [Compound P-301, 0-[6-amino-5-(4-{2-[3-(cyclopropylamino)-1-propynyl]-4-pyrimidinyl}-1,4-diazepan-1-yl)-3-pyridazinyl]phenol], for which, in assay [1], the DC50 is 0.05 to 0.5 µM and the “SMARCA2 % Degradation @ 1 μM” value was “++ (++=30-70%)”. In assay [2], this molecule returned a DC50 of 0.5 to 5 µM and an inhibition at 1 µM of 30 to 70%.
The like results for `CC(C)(C)OC(=O)NCC#Cc1nccc(N2CCC(Oc3cc(-c4ccccc4O)nnc3N)CC2)n1` [Compound P-296, 4-(1-{2-[3-(tert-butoxycarbonylamino)-1-propynyl]-4-pyrimidinyl}-4-piperidyloxy)-6-(o-hydroxyphenyl)-3-pyridazinamine] were, in that order, 0.05 to 0.5 µM, “++ (++=30-70%)”, 0.05 to 0.5 µM and 30 to 70%.
Regarding `C[C@@H]1CCN(c2cc(-c3ccccc3O)nnc2N)CCN1c1ccnc(C#CCN2CC(C#N)C2)n1` [Compound P-215, 1-[3-(4-{ (R)-4-[3-amino-6-(o-hydroxyphenyl)-4-pyridazinyl]-7-methyl-1,4-diazepan-1-yl}-2-pyrimidinyl)-2-propynyl]-3-azetidinecarbonitrile], in assay [1], the DC50 was 0.05 to 0.5 µM and the “SMARCA2 % Degradation @ 1 μM” value is “+++ (+++=>70%)”. Further, in assay [2], the DC50 was 0.05 to 0.5 µM and the inhibition at 1 µM fell in the range of 30 to 70%.
On to `CC1CCN(c2ccnc(C#CCNC(=O)c3cc4ncccn4n3)n2)CCN1c1cc(-c2ccccc2O)nnc1N` (centres unmarked) [Compound P-19, N-(3-(4-(4-(3-amino-6-(2-hydroxyphenyl)pyridazin-4-yl)-5-methyl-1,4-diazepan-1-yl)pyrimidin-2-yl)prop-2-yn-1-yl)pyrazolo[1,5-a]pyrimidine-2-carboxamide], for which, in assay [1], the half-maximal degradation concentration (DC50) was in the range of 0.5 to 5 µM and the “SMARCA2 % Degradation @ 1 μM” value is given as “++ (++=30-70%)”. Also, in assay [2], the DC50 is 0.5 to 5 µM and the inhibition at 1 µM is 30 to 70%.
In the case of `Cn1ccc(OCC#Cc2nccc(N3CCCN(c4cc(-c5ccccc5O)nnc4N)CC3)n2)n1` [Compound P-108, 2-(6-amino-5-(4-(2-(3-((1-methyl-1H-pyrazol-3-yl)oxy)prop-1-yn-1-yl)pyrimidin-4-yl)-1,4-diazepan-1-yl)pyridazin-3-yl)phenol], in assay [1], the DC50 lay in the range of 0.05 to 0.5 µM and the “SMARCA2 % Degradation @ 1 μM” value is given as “+++ (+++=>70%)”. Moreover, in assay [2], the DC50 is 0.05 to 0.5 µM and the inhibition at 1 µM is greater than 70%.
For the molecule `C[C@H]1CCN(c2cc(-c3ccccc3O)nnc2N)CCN1c1ccnc(C#CCNC(=O)c2cc3ncccn3n2)n1` [Compound P-102, (S)-N-(3-(4-(4-(3-amino-6-(2-hydroxyphenyl)pyridazin-4-yl)-7-methyl-1,4-diazepan-1-yl)pyrimidin-2-yl)prop-2-yn-1-yl)pyrazolo[1,5-a]pyrimidine-2-carboxamide], in assay [1], the DC50 was 0.05 to 0.5 µM and the “SMARCA2 % Degradation @ 1 μM” value is “+++ (+++=>70%)”. In assay [2], this molecule displayed a half-maximal degradation concentration (DC50) of less than 0.05 µM and an inhibition at 1 µM greater than 70%.
With `COCc1cc(N2CCCN(c3cc(-c4ccccc4O)nnc3N)CC2)nc(C#CCNC(=O)c2nn(C)c(C)c2C)n1` [Compound P-126, N-(3-(4-(4-(3-amino-6-(2-hydroxyphenyl)pyridazin-4-yl)-1,4-diazepan-1-yl)-6-(methoxymethyl)pyrimidin-2-yl)prop-2-yn-1-yl)-1,4,5-trimethyl-1H-pyrazole-3-carboxamide], in assay [1], the DC50 lay within 0.05 to 0.5 µM and the “SMARCA2 % Degradation @ 1 μM” value is listed as “++ (++=30-70%)”. In assay [2], the DC50 lay within 0.05 to 0.5 µM and the inhibition at 1 µM fell in the range of 30 to 70%.
For the molecule `NCC#Cc1nccc(N2CCCC3(CCN(c4cc(-c5ccccc5O)nnc4N)CC3)C2)n1` [Compound P-87, 2-(6-amino-5-(2-(2-(3-aminoprop-1-yn-1-yl)pyrimidin-4-yl)-2,9-diazaspiro[5.5]undecan-9-yl)pyridazin-3-yl)phenol], in assay [1], the DC50 was in the range of 0.5 to 5 µM and the “SMARCA2 % Degradation @ 1 μM” value is recorded as “+ (+=<30%)”.
For the molecule `NCC#Cc1nccc(N2CCC3C2CCCN3c2cc(-c3ccccc3O)nnc2N)n1` (centres unmarked) [Compound P-88, 2-(6-amino-5-(1-(2-(3-aminoprop-1-yn-1-yl)pyrimidin-4-yl)octahydro-4H-pyrrolo[3,2-b]pyridin-4-yl)pyridazin-3-yl)phenol], in assay [1], the DC50 was greater than 5 µM and the “SMARCA2 % Degradation @ 1 μM” value is given as “+ (+=<30%)”.
